Results published in ChEMBL document CHEMBL2010651, “Discovery and hit-to-lead optimization of pyrrolopyrimidines as potent, state-dependent Na(v)1.7 antagonists” (Bioorg Med Chem Lett, 2012).
In brackets after ≈: the same amount, converted by molar mass.

Experiment: Lipophilicity, log D of the compound at pH 7.4
Assay type: physicochemical
Conditions: buffer

SMILES | logD
Cc1c(C)n(Cc2ccccc2)c2ncnc(OC3CCN(Cc4cscn4)CC3)c12 | 4.35
Cc1cn(Cc2ccccc2)c2ncnc(OC3CCN(Cc4cscn4)CC3)c12 | 3.89
Fc1cn(Cc2ccccc2)c2ncnc(OC3CCN(Cc4cscn4)CC3)c12 | 3.49
Clc1cn(Cc2ccccc2)c2ncnc(OC3CCN(Cc4cscn4)CC3)c12 | 4.03
c1ccc(Cn2cnc3c(OC4CCN(Cc5cscn5)CC4)ncnc32)cc1 | 2.28
CC1(C)CN(Cc2ccccc2)c2ncnc(OC3CCN(Cc4cscn4)CC3)c21 | 3.94
CC1(C)C(=O)N(Cc2ccccc2)c2ncnc(OC3CCN(Cc4cscn4)CC3)c21 | 2.39
c1ccc(-n2ccc3c(OC4CCN(Cc5cscn5)CC4)ncnc32)cc1 | 3.3
Fc1ccc(Cn2ccc3c(OC4CCN(Cc5cscn5)CC4)ncnc32)cc1 | 3.49
Clc1cccc(Cn2ccc3c(OC4CCN(Cc5cscn5)CC4)ncnc32)c1 | 4.03
Clc1ccc(Cn2ccc3c(OC4CCN(Cc5cscn5)CC4)ncnc32)cc1 | 4.03
Cc1ccccc1Cn1ccc2c(OC3CCN(Cc4cscn4)CC3)ncnc21 | 3.9
FC(F)(F)c1cccc(Cn2ccc3c(OC4CCN(Cc5cscn5)CC4)ncnc32)c1 | 4.01
Fc1cccc(Cn2ccc3c(OC4CCN(Cc5cscn5)CC4)ncnc32)c1F | 3.45
Fc1cccc(F)c1Cn1ccc2c(OC3CCN(Cc4cscn4)CC3)ncnc21 | 3.58
O=C(c1cscn1)N1CCC(Oc2ncnc3c2ccn3Cc2ccccc2)CC1 | 3.07
c1ccc(Cn2ccc3c(OC4CCN(Cc5c[nH]cn5)CC4)ncnc32)cc1 | 2.35
c1ccc(Cn2ccc3c(OC4CCN(Cc5ccn[nH]5)CC4)ncnc32)cc1 | 3.02
c1ccc(Cn2ccc3c(OC4CCN(Cc5cn[nH]c5)CC4)ncnc32)cc1 | 3.16
Cc1nc(CN2CCC(Oc3ncnc4c3ccn4Cc3ccccc3)CC2)cs1 | 4.1
c1ccc(Cn2ccc3c(OC4CCN(Cc5ccccn5)CC4)ncnc32)cc1 | 3.7
Cc1cccc(CN2CCC(Oc3ncnc4c3ccn4Cc3ccccc3)CC2)n1 | 4.08
Cc1ccnc(CN2CCC(Oc3ncnc4c3ccn4Cc3ccccc3)CC2)c1 | 4.15
Cc1cccnc1CN1CCC(Oc2ncnc3c2ccn3Cc2ccccc2)CC1 | 4.15
Fc1ccc(CN2CCC(Oc3ncnc4c3ccn4Cc3ccccc3)CC2)nc1 | 3.76
Fc1cccnc1CN1CCC(Oc2ncnc3c2ccn3Cc2ccccc2)CC1 | 3.77
c1ccc(Cn2ccc3c(OC4CCN(Cc5cnccn5)CC4)ncnc32)cc1 | 2.71
Fc1ccccc1Cn1ccc2c(OC3CCN(Cc4ccccn4)CC3)ncnc21 | 3.75
Fc1cccc(Cn2ccc3c(OC4CCN(Cc5ccccn5)CC4)ncnc32)c1F | 3.71
Fc1c(Cn2ccc3c(OC4CCN(Cc5ccccn5)CC4)ncnc32)cccc1C(F)(F)F | 4.35

The next lines start with the values.

logD | SMILES
3.44 | c1ccc(Cn2ccc3c(OC4CCN(Cc5cscn5)CC4)ncnc32)cc1
4.15 | Cc1nc(OC2CCN(Cc3cscn3)CC2)c2ccn(Cc3ccccc3)c2n1
5.1 | FC(F)(F)c1nc(OC2CCN(Cc3cscn3)CC2)c2ccn(Cc3ccccc3)c2n1
2.18 | c1ccc(Cn2ncc3c(OC4CCN(Cc5cscn5)CC4)ncnc32)cc1
3.87 | c1ccc(CCn2ccc3c(OC4CCN(Cc5cscn5)CC4)ncnc32)cc1
4.32 | c1nc(OC2CCN(Cc3cscn3)CC2)c2ccn(CC3CCCCC3)c2n1
3.49 | Fc1ccccc1Cn1ccc2c(OC3CCN(Cc4cscn4)CC3)ncnc21
3.49 | Fc1cccc(Cn2ccc3c(OC4CCN(Cc5cscn5)CC4)ncnc32)c1
3.9 | Cc1cccc(Cn2ccc3c(OC4CCN(Cc5cscn5)CC4)ncnc32)c1
3.9 | Cc1ccc(Cn2ccc3c(OC4CCN(Cc5cscn5)CC4)ncnc32)cc1
4.01 | FC(F)(F)c1ccccc1Cn1ccc2c(OC3CCN(Cc4cscn4)CC3)ncnc21
4.01 | FC(F)(F)c1ccc(Cn2ccc3c(OC4CCN(Cc5cscn5)CC4)ncnc32)cc1
4.19 | Fc1c(Cl)cccc1Cn1ccc2c(OC3CCN(Cc4cscn4)CC3)ncnc21
4.08 | Fc1c(Cn2ccc3c(OC4CCN(Cc5cscn5)CC4)ncnc32)cccc1C(F)(F)F
1.24 | c1ccc(Cn2ccc3c(OC4CCNCC4)ncnc32)cc1
5.31 | c1ccc(Cn2ccc3c(OC4CCN(c5ccccc5)CC4)ncnc32)cc1
4.96 | c1ccc(CN2CCC(Oc3ncnc4c3ccn4Cc3ccccc3)CC2)cc1
3.1 | c1ccc(Cn2ccc3c(OC4CCN(Cc5cocn5)CC4)ncnc32)cc1
3.01 | Cn1cc(CN2CCC(Oc3ncnc4c3ccn4Cc3ccccc3)CC2)cn1
2.93 | Cn1ccnc1CN1CCC(Oc2ncnc3c2ccn3Cc2ccccc2)CC1
4.81 | c1ccc(Cn2ccc3c(OC4CCN(Cc5nccs5)CC4)ncnc32)cc1
3.67 | c1ccc(Cn2ccc3c(OC4CCN(Cc5cccnc5)CC4)ncnc32)cc1
3.69 | c1ccc(Cn2ccc3c(OC4CCN(Cc5ccncc5)CC4)ncnc32)cc1
4.15 | Cc1ccc(CN2CCC(Oc3ncnc4c3ccn4Cc3ccccc3)CC2)nc1
3.83 | Fc1cccc(CN2CCC(Oc3ncnc4c3ccn4Cc3ccccc3)CC2)n1
4.46 | Fc1c(Cl)cccc1Cn1ccc2c(OC3CCN(Cc4ccccn4)CC3)ncnc21

Experiment: Solubility in simulated intestinal fluid
Assay type: physicochemical
Conditions: not given

solubility [µg/mL] | SMILES
177 (≈ 408 µM) | Cc1c(C)n(Cc2ccccc2)c2ncnc(OC3CCN(Cc4cscn4)CC3)c12

Experiment: Solubility in phosphate buffered saline
Assay type: physicochemical
Conditions: not given

solubility [µg/mL] | SMILES
65 (≈ 150 µM) | Cc1c(C)n(Cc2ccccc2)c2ncnc(OC3CCN(Cc4cscn4)CC3)c12

Experiment: Solubility in 0.01 N HCl
Assay type: physicochemical
Conditions: not given

solubility [µg/mL] | SMILES
> 200 | Cc1c(C)n(Cc2ccccc2)c2ncnc(OC3CCN(Cc4cscn4)CC3)c12
